Results reported in EP0110298A1, “Acridanone derivatives” (F. HOFFMANN-LA ROCHE & CO. Aktiengesellschaft, priority 1982, dated 1984).
Counter-ions that a name gives are not always drawn.

How the values were obtained:
[1] = Acute toxicity (DL50) after single oral administration to mice; conditions: mouse, in vivo, read-out: DL50 in mg/kg p.o.
From the text: In der nachfolgenden Tabelle werden die Resultate dargestellt, welche mit einigen repräsentativen erfindungsgemässen Substanzen erhalten worden sind. Angegeben werden für jede der darin figurierenden Verbindung die VD50 in mg/kg p.o. und, für einige dieser Verbindungen, die DL50 in mg/kg bei einmaliger oraler Verabreichung an Mäusen.

Schistosoma mansoni = assay: Schistosomicidal (vermicidal) activity in infected mice, single oral treatment, worm count reduction; assay type: in vivo; conditions: 456 h, Albino-Mäuse infected s.c. with cercariae of a Liberia-Stamm of Schistosoma mansoni, single peroral treatment 46 days after infection, section after 19 days, dose giving 50% reduction of worm count (Probitmethode), read-out: VD50 in mg/kg p.o.
From the text: Die schistosomizide Wirkung der erfindungsgemässen Stoffe kann tierexperimentell wie folgt nachgewiesen werden: • Albino-Mäuse mit einem Gewicht von 15-18 g werden subcutan mit 60 + 5 Cercarien eines Liberia-Stammes von Schistosoma mansoni infiziert. 46 Tage nach der Infektion werden die Tiere einmal mit den zu prüfenden Substanzen peroral behandelt. Pro Substanz und Dosierung werden 5-10 Tiere eingesetzt. Als Kontrolle dienen 10 unbehandelte Tiere. Die Sektion erfolgt nach 19 Tagen, worauf Wurmpaare und einzelne Würmer in Mesenterialvenen, Pfortader und Leber herauspräpariert und gezählt werden. Die vermicide Wirkung zeigt sich in einer reduzierten Zahl lebender Parasiten im Vergleich zu der Zahl in den Kontrolltieren.
Zur Auswertung wird die prozentuale Reduktion der Parasiten bei behandelten Tieren im Vergleich zu unbehandelten Kontrolltieren berechnet. Man bestimmt die VD 50 nach der Probitmethode. Die VD50 ist diejenige vermizide Dosis, welche eine 50-proz. Reduktion der Wurmzahl bewirkt.

Row | SMILES | LD50 [1] | ED50 (Schistosoma mansoni)
1 | CN(C)CCn1c2ccccc2c(=NN=C2NCCS2)c2ccccc21 [10-[2-(Dimethylamino)-äthyl]-9-acridanon-(2-thiazolidinyliden)hydrazon] | 250 to 500 mg/kg | 6.4 mg/kg
2 | CN1CCN(CCn2c3ccccc3c(=NNc3nccs3)c3ccccc32)CC1 [10-12-(4-Methyl-1-piperazinyl)äthyl]-9-acridanon-(2-thiazolyl)hydrazon.2,5 HCl] | 625 to 1250 mg/kg | 2.4 mg/kg
3 | CN1CCN(CCn2c3ccccc3c(=NN=C3NCCS3)c3ccccc32)CC1 [10-[2-(4-Methyl-1-piperazinyl)äthyl]-9-acridanon-(2-thiazolidinyliden)hydrazon] | 156 to 312 mg/kg | 4 mg/kg
4 | CC(=O)N1CCN(CCn2c3ccccc3c(=NN=C3NCCS3)c3ccccc32)CC1 [10-[2-(4-Acetyl-1-piperazinyl)äthyl]-9-acridanon-(2-thiazolidinyliden)-hydrazon] | 1250 to 2500 mg/kg | 3.4 mg/kg
5 | CN(C)CCCn1c2ccccc2c(=NNc2nccs2)c2ccccc21.Cl.Cl [10-[3-(Dimethylamino)propyl]-9-acridanon-(2-thiazolyl)hydrazon-dihydrochlorid] | 312 to 625 mg/kg | 3.5 mg/kg
6 | CCN(CC)CCn1c2ccccc2c(=NN=C2NCCS2)c2ccccc21 [10-[2-(Diäthylamino)äthyl]-9-acridanon-(2-thiazolidinyliden)hydrazon] | 312 to 625 mg/kg | 9.5 mg/kg
7 | CN(C)CCCn1c2ccccc2c(=NN=C2NCCS2)c2ccccc21 [10-[3-(Dimethylamino)propyl]-9-acridanon-(2-thiazolidinyliden)hydrazon] | 125 to 250 mg/kg | 4.7 mg/kg
8 | c1ccc2c(c1)c(=NNc1nccs1)c1ccccc1n2CCN1CCCCC1 [10-[2-(1-Piperidinyl)äthyl]-9-acridanon-(2-thiazolyl)hydrazon-l,5 HCl] | 312 to 625 mg/kg | 9 mg/kg
9 | CN(C)CCn1c2ccccc2c(=NNc2nccs2)c2ccccc21 [10-[2-(Dimethylamino)äthyl]-9-acridanon-(2-thiazolyl)hydrazon-dihydrochlorid] | 312 to 625 mg/kg | 4.9 mg/kg
10 | c1ccc2c(c1)c(=NN=C1NCCS1)c1ccccc1n2CCN1CCCC1 [10-[2-(1-Pyrrolidinyl)äthyl]-9-acridanon-(2-thiazolidinyliden)hydrazon] | 156 to 312 mg/kg | 6.2 mg/kg
11 | NCCn1c2ccccc2c(=NNc2nccs2)c2ccccc21 [10-(2-Aminoäthyl)-9-acridanon-2-thiazolyl-hydrazon-dihydrochlorid] | 156 to 312 mg/kg | 2.6 mg/kg
12 | CCN(CC)CCn1c2ccccc2c(=NNc2nccs2)c2ccccc21 [10-[2-(Diäthylamino)äthylJ-9-acridanon-(2-thiazolyl)hydrazon-dihydrochlorid] | > 5000 mg/kg | 3.3 mg/kg
13 | CC(=O)N1CCN(CCn2c3ccccc3c(=NNc3nccs3)c3ccccc32)CC1 [10-[2-(4-Acetyl-1-piperazinyl)äthyl]-9-acridanon-(2-thiazolyl)hydrazon-dihydrochlorid] | 312 to 625 mg/kg | 2.6 mg/kg
